Read-outs that look alike come from different tables or passages of the source.
B1: Oxa48: beta-lactamase class D OXA-48 from Klebsiella pneumoniae, used as biosensor (protein, listed as Klebsiella pneumoniae)
chain: MRVLALSAVFLVASIIGMPAVAKEWQENKSWNAHFTEHKSQGVVVLWNENKQQGFTNNLKRANQAFLPASTFKIPNSLIALDLGVVKDEHQVFKWDGQTRDIATWNRDHNLITAMKYSVVPVYQEFARQIGEARMSKMLHAFDYGNEDISGNVDSFWLDGGIRISATEQISFLRKLYHNKLHVSERSQRIVKQAMLTEANGDYIIRAKTGYSTRIEPKIGWWVGWVELDDNVWFFAMNMDMPTSDGLGLRQAITKEVLKQEKIIP
modifications: PEPTIDE (1)..(22) SIGNAL PEPTIDE
notes: beta-lactamase class D OXA-48 from Klebsiella pneumoniae, used as biosensor

What was measured:
[1] = target: P99 beta-lactamase (class C) (Enterobacter cloacae, UniProt P05364); format: biochemical; conditions: nitrocefin reporter
[2] = target: Imp1 beta-lactamase (class B) (Serratia marcescens, UniProt P52699); format: biochemical; conditions: nitrocefin reporter
[3] = system: AmpCHD beta-lactamase (class C); experiment: Screening of beta-lactamases by competition, nitrocefin as reporter substrate; format: biochemical
[4] = target: T1, beta-lactamase class D OXA-48 (Klebsiella pneumoniae, UniProt Q6XEC0); format: biochemical; conditions: for Accuracy <> (average) / [Meropenem] <> (average): average of 5 replicates
Description: The specificity (or selectivity) of the method according to an embodiment of the invention is defined as the ability of the method to measure the concentration of a carbapenem antibiotic (such as meropenem) in presence of an excess of another beta-lactam antibiotic (second beta-lactam) currently used in ICUs (see Table 4).
To determine the specificity of the method illustrating the invention for carbapenem antibiotics, in particular meropenem, versus other beta-lactam antibiotics, stock-solutions of second beta-lactam antibiotics were prepared in water.
An excess of a second beta-lactam concentration of up to 10 times the concentration of meropenem was used.

[5] = system: Imp4 beta-lactamase (class B); experiment: Screening of beta-lactamases by competition, nitrocefin as reporter substrate; format: biochemical
[6] = system: Per2 beta-lactamase (class A); experiment: as above; format: biochemical
[7] = target: T1, beta-lactamase class D OXA-48; format: biochemical; conditions: calibration curves FIG. 2, FIG. 3
[8] = Activity loss of the beta-lactamase in 1 h; format: physicochemical; conditions: enzyme activity
[9] = Meropenem 1.2 mg/L, second β-lactam 10.0 mg/L (8.4 times excess)
[10] = Meropenem 20.0 mg/L, second β-lactam 200.0 mg/L (10 times excess)

Sequence of P99 beta-lactamase (class C) (P05364 21-381): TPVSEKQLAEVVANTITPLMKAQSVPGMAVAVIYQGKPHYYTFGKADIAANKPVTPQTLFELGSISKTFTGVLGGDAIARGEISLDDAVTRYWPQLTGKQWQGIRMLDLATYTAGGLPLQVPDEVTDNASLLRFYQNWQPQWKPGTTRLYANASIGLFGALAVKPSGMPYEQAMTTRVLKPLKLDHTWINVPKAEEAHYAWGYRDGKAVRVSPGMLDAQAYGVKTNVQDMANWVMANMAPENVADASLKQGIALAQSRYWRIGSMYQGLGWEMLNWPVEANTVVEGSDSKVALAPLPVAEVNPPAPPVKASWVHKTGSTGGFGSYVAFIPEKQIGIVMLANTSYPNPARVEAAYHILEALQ
Sequence of Imp1 beta-lactamase (class B) (P52699 19-246 limits assumed): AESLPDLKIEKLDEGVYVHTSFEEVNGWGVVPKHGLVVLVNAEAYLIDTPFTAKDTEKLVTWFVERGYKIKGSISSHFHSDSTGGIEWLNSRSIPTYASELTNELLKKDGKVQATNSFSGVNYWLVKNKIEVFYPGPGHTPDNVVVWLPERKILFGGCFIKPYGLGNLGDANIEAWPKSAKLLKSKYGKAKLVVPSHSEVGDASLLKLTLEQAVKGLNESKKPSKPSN

| Molecule | hydrolysis rate symbol, (Vmax/V0)-1 [1] | Accuracy <> (average) [4, 9] [%] | [Meropenem] <> (average) [4, 9] [mg/L] | Accuracy Replicate 1 [4, 9] [%] | [Meropenem] Replicate 1 [4, 9] [mg/L] | Accuracy Replicate 2 [4, 9] [%] | [Meropenem] Replicate 2 [4, 9] [mg/L] | Accuracy Replicate 3 [4, 9] [%] | [Meropenem] Replicate 3 [4, 9] [mg/L] | Accuracy Replicate 4 [4, 9] [%] | [Meropenem] Replicate 4 [4, 9] [mg/L] | Accuracy Replicate 5 [4, 9] [%] | [Meropenem] Replicate 5 [4, 9] [mg/L] | Accuracy <> (average) [4, 10] [%] | [Meropenem] <> (average) [4, 10] [mg/L] | Accuracy Replicate 1 [4, 10] [%] | [Meropenem] Replicate 1 [4, 10] [mg/L] | Accuracy Replicate 2 [4, 10] [%] | [Meropenem] Replicate 2 [4, 10] [mg/L] | Accuracy Replicate 3 [4, 10] [%] | other results |
| --- | --- | --- | --- | --- | --- | --- | --- | --- | --- | --- | --- | --- | --- | --- | --- | --- | --- | --- | --- | --- | --- |
| CO/N=C(\C(=O)N[C@@H]1C(=O)N2C(C(=O)O)=C(COC(C)=O)CS[C@H]12)c1csc(N)n1 [Cefotaxim ® Sandoz] | ++++ (>100) | 111 | 1.3 | 109 | 1.3 | 116 | 1.3 | 107 | 1.2 | 110 | 1.3 | 115 | 1.3 | 92 | 20.5 | 93 | 20.8 | 94 | 20.9 | 91 | hydrolysis rate symbol, (Vmax/V0)-1 [2]: + (0.1-1); hydrolysis rate symbol, (Vmax/V0)-1 [3]: + (0.1-1); [Meropenem] Replicate 3 [4, 10]: 20.2 mg/L; Accuracy Replicate 4 [4, 10]: 91%; [Meropenem] Replicate 4 [4, 10]: 20.2 mg/L; Accuracy Replicate 5 [4, 10]: 91%; [Meropenem] Replicate 5 [4, 10]: 20.2 mg/L; hydrolysis rate symbol, (Vmax/V0)-1 [5]: + (0.1-1) |
| CC(C)(O/N=C(\C(=O)N[C@@H]1C(=O)N2C(C(=O)[O-])=C(C[n+]3ccccc3)CS[C@H]12)c1csc(N)n1)C(=O)O [Ceftazidime] | + (0.1-1) | 111 | 1.3 | 108 | 1.3 | 105 | 1.2 | 108 | 1.3 | 112 | 1.3 | 118 | 1.4 | 100 | 20.1 | 102 | 20.6 | 97 | 19.6 | 100 | [Meropenem] Replicate 3 [4, 10]: 20.1 mg/L; Accuracy Replicate 4 [4, 10]: 100%; [Meropenem] Replicate 4 [4, 10]: 20.2 mg/L; Accuracy Replicate 5 [4, 10]: 99%; [Meropenem] Replicate 5 [4, 10]: 20.0 mg/L |
| CO/N=C(\C(=O)N[C@@H]1C(=O)N2C(C(=O)O)=C(CSc3nc(=O)c(O)nn3C)CS[C@H]12)c1csc(N)n1 [Ceftria ®] | +++ (10-100) | 112 | 1.3 | 105 | 1.2 | 111 | 1.3 | 112 | 1.3 | 116 | 1.3 | 113 | 1.3 | 95 | 21.1 | 100 | 22.3 | 96 | 21.4 | 96 | [Meropenem] Replicate 3 [4, 10]: 21.4 mg/L; Accuracy Replicate 4 [4, 10]: 90%; [Meropenem] Replicate 4 [4, 10]: 20.0 mg/L; Accuracy Replicate 5 [4, 10]: 91%; [Meropenem] Replicate 5 [4, 10]: 20.4 mg/L |
| Cc1onc(-c2ccccc2)c1C(=O)N[C@@H]1C(=O)N2[C@@H]1SC(C)(C)[C@@H]2C(=O)O [Penstapho ®] | ++++ (>100) | 119 | 1.4 | 115 | 1.3 | 123 | 1.4 | 121 | 1.4 | 122 | 1.4 | 116 | 1.3 | 103 | 22.9 | 98 | 21.8 | 104 | 23.2 | 104 | hydrolysis rate symbol, (Vmax/V0)-1 [6]: ++ (1-10); hydrolysis rate symbol, (Vmax/V0)-1 [3]: ++ (1-10); [Meropenem] Replicate 3 [4, 10]: 23.1 mg/L; Accuracy Replicate 4 [4, 10]: 107%; [Meropenem] Replicate 4 [4, 10]: 23.8 mg/L; Accuracy Replicate 5 [4, 10]: 102%; [Meropenem] Replicate 5 [4, 10]: 22.7 mg/L |
| CC1(C)S[C@@H]2[C@H](NC(=O)[C@H](N)c3ccccc3)C(=O)N2[C@H]1C(=O)O [Pentrexyl ®] | ++ (1-10) | 112 | 1.3 | 122 | 1.4 | 112 | 1.3 | 110 | 1.3 | 109 | 1.3 | 108 | 1.3 | 95 | 21.1 | 92 | 20.5 | 93 | 20.8 | 96 | hydrolysis rate symbol, (Vmax/V0)-1 [6]: + (0.1-1); hydrolysis rate symbol, (Vmax/V0)-1 [3]: +++ (10-100); [Meropenem] Replicate 3 [4, 10]: 21.4 mg/L; Accuracy Replicate 4 [4, 10]: 95%; [Meropenem] Replicate 4 [4, 10]: 21.3 mg/L; Accuracy Replicate 5 [4, 10]: 98%; [Meropenem] Replicate 5 [4, 10]: 21.8 mg/L |
| CO/N=C(\C(=O)N[C@@H]1C(=O)N2C(C(=O)O)=C(COC(N)=O)CS[C@H]12)c1ccco1 [Zinacef ®] | ++++ (>100) | 104 | 1.2 | 108 | 1.3 | 97 | 1.1 | 100 | 1.2 | 104 | 1.2 | 111 | 1.3 | 98 | 21.9 | 98 | 21.8 | 98 | 21.9 | 95 | hydrolysis rate symbol, (Vmax/V0)-1 [2]: + (0.1-1); hydrolysis rate symbol, (Vmax/V0)-1 [3]: + (0.1-1); [Meropenem] Replicate 3 [4, 10]: 21.2 mg/L; Accuracy Replicate 4 [4, 10]: 101%; [Meropenem] Replicate 4 [4, 10]: 22.4 mg/L; Accuracy Replicate 5 [4, 10]: 99%; [Meropenem] Replicate 5 [4, 10]: 22.0 mg/L |
| C[C@@H](O)[C@H]1C(=O)N2C(C(=O)O)=C(S[C@@H]3CN[C@H](CNS(N)(=O)=O)C3)[C@H](C)[C@H]12 [doripenem] | – | – | – | – | – | – | – | – | – | – | – | – | – | – | – | – | – | – | – | – | determining the concentration using OXA-48 [7]: possible |
| C[C@@H](O)[C@H]1C(=O)N2C(C(=O)O)=C(S[C@@H]3CN[C@H](C(=O)Nc4cccc(C(=O)O)c4)C3)[C@H](C)[C@H]12 [ertapenem] | – | – | – | – | – | – | – | – | – | – | – | – | – | – | – | – | – | – | – | – | determining the concentration using OXA-48 [7]: possible |
| B1 | – | – | – | – | – | – | – | – | – | – | – | – | – | – | – | – | – | – | – | – | Activity loss in 1 h [8]: 0% |

Reference: patent US20220317138A1, “METHODS FOR DETERMINING THE CONCENTRATION OF A CARBAPENEM ANTIBIOTIC IN A BIOLOGICAL SAMPLE” (priority 2019, published 2022)
